“Also recorded” adds a separate entry of the source.
Assays:
[1] = Single-dose oral pharmacokinetics in rats; format: in vivo, male Sprague Dawley (SD) rats; details: rat whole blood; single oral dose 100 mg/kg
Method: Single-dose pharmacokinetics (PK) in male Sprague Dawley (SD) rats (n=4) were assessed for each compound, and the maximum or peak whole blood concentration and area under the curve are shown in Table 5.
Single doses of each compound were administered as oral suspensions by gavage in 0.5% carboxy methylcellulose at 100 mg/kg. Whole blood levels were collected for at least 72 hours after dose administration. Bioanalyses were performed with liquid chromatography-tandem mass spectrometry […].

[2] = 14-day repeat-dose safety (clinical observations, histopathology) in rats; format: in vivo, male and female SD rats; details: for safety in non-clinical toxicology (in words): above anticipated therapeutic drug levels; for clinical or histopathologic changes after 14 days of exposure: rats, oral 100 mg/kg once daily for 14 days
Method: (§1) Repeat oral doses of each compound were administered by oral gavage for 14 days to male and female SD rats (n=3). […] Steady state exposures for the final dosing interval on Day 14 were similar to total compound exposure from single-dose PK.
(§2) Repeat doses of each compound were administered once daily as oral suspensions by gavage in 0.5% carboxy methylcellulose for 14 days at 100 mg/kg. Whole blood was collected at 7 time-points for up to 24 hours during the final dosing interval on Day 14. Clinical observations, body weights, and food consumption were recorded throughout the 14 day study. Clinical chemistry and hematologic parameters were assessed, and histopathology was performed on organs after 14 days of exposure to study drug.

Hb = target: T1, Hb (Homo sapiens, UniProt P69905); assay: Occupancy/dose-dependent p50 shift in human non-sickle blood; format: biochemical; details: compared to Voxelotor at equivalent drug-Hb occupancy levels
T1 construct: as separate independent studies with non-sickle blood; from tissue; host or cells: non-sickling AA blood (red blood cells)
T1 sequence (P69905 2-142 limits assumed): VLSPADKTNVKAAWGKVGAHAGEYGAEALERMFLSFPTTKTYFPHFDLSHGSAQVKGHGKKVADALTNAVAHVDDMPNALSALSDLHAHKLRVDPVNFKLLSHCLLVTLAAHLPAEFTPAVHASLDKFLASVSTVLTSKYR
T1 sequence (P68871 2-147 partner limits assumed): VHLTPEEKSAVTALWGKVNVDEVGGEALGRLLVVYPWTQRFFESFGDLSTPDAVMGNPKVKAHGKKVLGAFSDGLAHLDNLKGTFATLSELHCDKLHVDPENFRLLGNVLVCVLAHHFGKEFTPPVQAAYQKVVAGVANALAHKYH
Method: Non-sickling human blood was incubated with test compounds at 0.25-2 mM concentrations at 37° C. for 1 hour in 96-well round bottom plates. At conclusion, RBCs were washed once with PBS, followed by lysis with deionized water. Approximately 100 μl aliquots of individual lysates were added to 3 mL of 0.1M potassium phosphate buffer, pH 7.0 in a cuvette and subjected to hemoximetry analysis using a Hemox™ Analyzer (TCS Scientific Corp.) as previously described. (Abdulmalik et al., 2020; Pagare et al., 2020) Change in p50 values (Δp50) was calculated by subtracting the p50 values of treated samples from the value of the control sample and expressing the difference as a percentage of control p50 values.

[3] = 14-day repeat-dose oral pharmacokinetics in rats; format: in vivo, male and female SD rats; details: oral 100 mg/kg for 14 days, Day 14
Method: as §1, §2

[4] = test system: blood suspensions from humans with homozygous SCD; assay: Oxygen-independent sickle inhibition under anoxia (100% nitrogen) in SS blood suspensions; format: cell-based, human
Method: All compounds (Comp 1-13) and comparator molecules (VZHE-039, PP-14, INN-310, and Voxelotor) were evaluated following established procedures (Abdulmalik et al., 2005, 2020; Pagare et al., 2020). Blood samples from individual donors with homozygous SCD (obtained with informed consent) were diluted using Hemox buffer solution with the addition of glucose (10 mM) and BSA (0.2%) to adjust hematocrit of the blood suspensions to 20%, which standardizes the procedure to normalize the ratio of RBCs to drug, for assay consistency and reproducibility. Briefly, blood suspensions were incubated under room air in the presence of various concentrations of test compounds (0-2 mM) at 37° C. for 1 hour in 96-well round bottom plates. Subsequently, the suspensions were incubated with a hypoxic gas mixture (2.5% Oxygen gas/balance Nitrogen gas) at 37° C. for up to 2 hours prior to fixation with 2% glutaraldehyde solution without exposure to air. The fixated blood aliquots were evaluated by microscopic morphological analysis (image analysis on Image J software) to identify the proportion of sickled and non-sickled RBCs, and sickle inhibition calculated based on the % change from negative control (DMSO).
To establish oxygen-independent sickle inhibition, the incubation chamber was subsequently opened and exposed to room air for 15 minutes to ensure complete re-oxygenation and reversal of the sickled cells to normal round cells. Reversal was confirmed by microscopy. The incubation chamber was then closed, and the assay was repeated with incubation in 100% nitrogen gas for 1 hour (for screening), or up to 2.5 h (for time-course studies), with collection and fixation of blood aliquots at defined intervals. Aliquot samples were again subjected to microscopic morphological analysis of bright field images to identify the proportion of sickled and non-sickled cells, and sickle inhibition calculated.

[5] = ADME / bioavailability assessment
[6] = most patients with SCD; cited from earlier work
[7] = female rats, read-out: Cmax [μM] female
[8] = male rats, read-out: Cmax [μM] male

| AUC0-∞ [μM*h] [1] | Cmax [1] | SMILES | AUC0-∞ [μM*h] female ([3]; female rats) | Cmax [3, 7] | AUC0-∞ [μM*h] male ([3]; male rats) | Cmax [3, 8] | polymer destabilizing effects / sickle inhibition in anoxia (in words) [4] | other results |
| --- | --- | --- | --- | --- | --- | --- | --- | --- |
| 3,360 μM*h | 242 µM | O=Cc1c(O)cccc1OCc1cncc(F)c1 [Comp 4, 2-((5-fluoropyridin-3-yl)methoxy)-6-hydroxybenzaldehyde] | – | – | – | – | – | – |
| – | 49 µM | O=Cc1c(O)cccc1OCc1cccnc1F [Comp 6, 2-((2-fluoropyridin-3-yl)methoxy)-6-hydroxybenzaldehyde] | – | – | – | – | – | AUC0-∞ [1]: 728 µM·h |
| 1,022 μM*h | 76 µM | O=Cc1c(O)cccc1OCc1ncccc1Cl [Comp 8, 2-((3-chloropyridin-2-yl)methoxy)-6-hydroxybenzaldehyde] | – | – | – | – | – | – |
| – | – | O=Cc1c(F)cc(F)cc1OCc1ccccn1 [Comp 9, 2,4-difluoro-6-(pyridin-2-ylmethoxy)benzaldehyde] | – | – | – | – | completely negates the polymer destabilization effects | – |
| 3,011 μM*h | 157 µM | O=Cc1c(O)cccc1OCc1cncnc1 [Comp 10, 2-hydroxy-6-(pyrimidin-5-ylmethoxy)benzaldehyde] | – | – | – | – | – | – |
| – | – | O=Cc1c(OCc2cccnc2)ccc(F)c1O [Comp 12, 3-fluoro-2-hydroxy-6-(pyridin-3-ylmethoxy)benzaldehyde] | – | – | – | – | significantly reduced the potency of polymer inhibition | – |
| – | – | O=Cc1c(F)cc(F)cc1OCc1ncccc1F [Comp 13, 2,4-difluoro-6-((3-fluoropyridin-2-yl)methoxy)benzaldehyde] | – | – | – | – | completely negates the polymer destabilization effects | – |
| – | – | COc1ccc(OCc2ccccn2)c(C=O)c1 [INN-310, reference compound] | – | – | – | – | only weak potency in anoxia | – |
| – | – | O=Cc1c(O)cccc1OCc1ccccc1 [Reference A, 2-(benzyloxy)-6-hydroxybenzaldehyde, reference compound] | – | – | – | – | exhibits potent polymer destabilizing effects | bioavailability (in words) [5]: not bioavailable |
| 8,782 μM*h | 394 µM | O=Cc1c(O)cccc1OCc1cccc(CO)n1 [VZHE-039, reference compound] | 12,188 μM*h | 894 µM | 11,585 μM*h | 753 µM | – | clinical or histopathologic changes after 14 days of exposure [2]: Both clinical and histopathologic changes in the liver, including hepatocyte necrosis |
| – | – | CC(C)n1nccc1-c1ncccc1COc1cccc(O)c1C=O [Voxelotor, reference compound] | 7,617 μM*h | 548 µM | 6,760 μM*h | 422 µM | did not demonstrate any sickle inhibition | increase in Hb concentrations [6]: at least 1 g/dl |

| SMILES | AUC0-∞ [μM*h] [1] | Cmax [1] | AUC0-∞ [μM*h] female ([3]; female rats) | Cmax [3, 7] | AUC0-∞ [μM*h] male ([3]; male rats) | Cmax [3, 8] | polymer destabilizing effects / sickle inhibition in anoxia (in words) [4] | other results |
| --- | --- | --- | --- | --- | --- | --- | --- | --- |
| O=Cc1c(O)cccc1OCc1cccnc1 [Comp 1, 2-hydroxy-6-(pyridin-3-ylmethoxy)benzaldehyde] | 17,415 μM*h | 919 µM | 8,085 μM*h | 534 µM | 10,490 μM*h | 703 µM | most potent polymer destabilizers discovered to date; also recorded: most potent and sustained polymer destabilizing effects observed to date | safety in non-clinical toxicology (in words) [2]: without hepatotoxicity; clinical or histopathologic changes after 14 days of exposure [2]: No clinical or histopathologic changes; changes in p50 of Hb in human blood (in words) (Hb): relatively weak changes in p50; absorption, distribution, metabolism and elimination (ADME) properties (in words) [5]: acceptable absorption, distribution, metabolism and elimination (ADME) properties without metabolic lability |
| O=Cc1c(O)cccc1OCc1ccccn1 [Comp 2, 2-hydroxy-6-(pyridin-2-ylmethoxy)benzaldehyde] | 19,822 μM*h | 958 µM | 21,547 μM*h | 1110 µM | 20,363 μM*h | 1110 µM | most potent polymer destabilizers discovered to date; also recorded: most potent and sustained polymer destabilizing effects observed to date | safety in non-clinical toxicology (in words) [2]: without hepatotoxicity; clinical or histopathologic changes after 14 days of exposure [2]: No clinical or histopathologic changes; changes in p50 of Hb in human blood (in words) (Hb): relatively weak changes in p50; Cmax (ng/ml) female ([3]; female rats): 254,382 ng/ml; absorption, distribution, metabolism and elimination (ADME) properties (in words) [5]: acceptable absorption, distribution, metabolism and elimination (ADME) properties without metabolic lability |
| O=Cc1c(O)cccc1OCc1ncccc1F [Comp 5, 2-((3-fluoropyridin-2-yl)methoxy)-6-hydroxybenzaldehyde] | 12,047 μM*h | 348 µM | 20,566 μM*h | 993 µM | 17,073 μM*h | 854 µM | – | safety in non-clinical toxicology (in words) [2]: without hepatotoxicity; clinical or histopathologic changes after 14 days of exposure [2]: No clinical or histopathologic changes; changes in p50 of Hb in human blood (in words) (Hb): relatively weak changes in p50; absorption, distribution, metabolism and elimination (ADME) properties (in words) [5]: acceptable absorption, distribution, metabolism and elimination (ADME) properties without metabolic lability |

Reference: patent publication US20260256752A1, “HIGHLY WATER SOLUBLE SCHIFF BASE PRODRUGS OF BENZALDEHYDE ALLOSTERIC MODULATORS” (ILLEXCOR HOLDINGS, LLC, priority 2022, published 2026)
